Regarding `CC(C)(C)c1cc(NC(=O)Nc2cccc(Cl)c2Cl)c(-c2ccccc2)s1` [Entry 41, N-(2-Phenyl-5-tert-butyl-3-thienyl)-N′-(2,3-dichlorophenyl)urea], the melting point (in general, the temperature, or range, at which the solid turns liquid) fell in the range of 171 to 173 °C.

Molecule `CC(C)(C)c1cc(NC(=O)Nc2cccc(Cl)c2Cl)c(-c2ccncc2)o1` [Entry 40, N-(2-(4-Pyridinyl)-5-tert-butyl-3-furyl)-N′-(2,3-dichlorophenyl)urea] registered a melting point of 195 to 198 °C.

For the origin of these results see patent US7329670B1, “Inhibition of RAF kinase using aryl and heteroaryl substituted heterocyclic ureas” (Bayer Pharmaceuticals Corporation, priority 1997, dated 2008).
